Solubility of sunitinib salts in water at 25° C.: 2000 µg/mL
Substance: sunitinib L-malate

Source: patent publication US8686023B2, “Salts of sunitinib” (Lek Pharmaceuticals D.D., priority 2008, dated 2014)
